How the values were obtained:
[1] = target: T1, human CRF receptor (Homo sapiens, UniProt P34998); assay: Measurement of CRF Binding Inhibitory Rate (receptor binding experiment with 125I-CRF); details: human CRF receptor expressing CHO cellular membrane fraction; 50 pM ovine 125I-CRF; 0.05 nM to 10 μM of compound; room temperature 1.5 hr; read-out: IC50 values (CRF binding inhibition)
T1 construct: expressed in transfected cells; host or cells: CHO cells (membrane fraction)
T1 sequence (P34998 24-415): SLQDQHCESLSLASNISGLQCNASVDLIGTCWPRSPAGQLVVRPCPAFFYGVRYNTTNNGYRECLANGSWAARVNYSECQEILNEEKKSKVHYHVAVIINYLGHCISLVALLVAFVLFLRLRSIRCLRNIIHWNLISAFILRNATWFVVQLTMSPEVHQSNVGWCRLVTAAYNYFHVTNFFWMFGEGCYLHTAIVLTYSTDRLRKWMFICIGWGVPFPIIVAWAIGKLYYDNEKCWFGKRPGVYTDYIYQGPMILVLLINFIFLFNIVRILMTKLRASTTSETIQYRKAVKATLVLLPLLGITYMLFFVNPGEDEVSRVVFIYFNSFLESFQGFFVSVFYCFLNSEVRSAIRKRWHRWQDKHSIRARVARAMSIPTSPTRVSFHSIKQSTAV
Procedure: Measurement of CRF Binding Inhibitory Rate
A receptor binding experiment was carried out using a human CRF receptor expressing CHO cellular membrane fraction and ovine CRF, [^125I]-tyr^0(^125I-CRF). 1000 nM of a test compound was incubated with 1 μg of human CRF receptor expressing CHO cellular membrane fraction and 50 pM of ^125I-CRF in a binding assay buffer (50 mM Tris-HCl, 5 mM EDTA, 10 mM MgCl2, 0.05% CHAPS, 0.1% BSA, 0.5 mM PMSF, 0.1 μg/mL pepstatin, 20 μg/mL leupeptin, pH 7.5). In addition, for measuring nonspecific binding (NSB), 0.1 μM unlabelled human Urocortin was incubated with 5 μg of human CRF receptor expressing CHO cellular membrane fraction and 50 pM of ^125I-CRF in a binding assay buffer. After a binding reaction was carried out at room temperature for 1.5 hr, the membrane was entrapped on a glass filter (UniFilter plate GF-C/Perkin Elmer) by suction filtration using a cell harvester (Perkin Elmer), and washed with ice-cooled 50 mM Tris-HCl (pH 7.5). After drying the glass filter, a liquid scintillation cocktail (Microscinti 0, Perkin Elmer) was added, and the radioactivity of ^125I-CRF remaining on a glass filter was measured using Topcount (Perkin Elmer).
(TB-SB)/(TB-NSB)×100 (SB: radioactivity when a compound is added, TB: maximum binding radioactivity, NSB: nonspecific binding radioactivity) were calculated to obtain binding inhibitory rates under the range of the presence from 0.05 nM to 10 μM of each compounds. The IC50 values were calculated by using GraphPad Prism software.

Row | SMILES | IC50 [1] | melting point
1 | CCC(CC)c1ccc(OC)c2nc(Oc3c(Cl)cc(N(C)C)cc3Cl)n(C)c12 [Example 2, 3,5-Dichloro-4-{[7-(1-ethylpropyl)-4-methoxy-1-methyl-1H-benzimidazol-2-yl]oxy}-N,N-dimethylaniline] | < 1 µM | 176 to 177 °C
2 | CCC(CC)c1ccc(OC)c2nc(Oc3ccc(N(C)C)cc3Cl)n(C)c12 [Example 3, 3-Chloro-4-{[7-(1-ethylpropyl)-4-methoxy-1-methyl-1H-benzimidazol-2-yl]oxy}-N,N-dimethylaniline] | < 1 µM | 122 to 123 °C
3 | CCC(CC)c1ccc(OC)c2nc(Oc3ccc(Cl)cc3N(C)C)n(C)c12 [Example 4, 5-Chloro-2-{[7-(1-ethylpropyl)-4-methoxy-1-methyl-1H-benzimidazol-2-yl]oxy}-N,N-dimethylaniline] | < 1 µM | 122 to 123 °C
4 | CCC(CC)c1ccc(OC)c2nc(Oc3ccc(C)nc3N(C)C)n(C)c12 [Example 5, 3-{[7-(1-Ethylpropyl)-4-methoxy-1-methyl-1H-benzimidazol-2-yl]oxy}-N,N,6-trimethylpyridin-2-amine] | < 1 µM | 143 to 144 °C
5 | CCC(CC)c1ccc(OC)c2nc(Oc3ccc(C(C)=O)cc3C)n(C)c12 [Example 6, 1-(4-{[7-(1-Ethylpropyl)-4-methoxy-1-methyl-1H-benzimidazol-2-yl]oxy}-3-methylphenyl)ethanone] | < 1 µM | 114 to 115 °C
6 | CCC(CC)c1ccc(OC)c2nc(Oc3c(Cl)cc(Cl)cc3N(C)C)n(C)c12 [Example 7, 3,5-Dichloro-2-{[7-(1-ethylpropyl)-4-methoxy-1-methyl-1H-benzimidazol-2-yl]oxy}-N,N-dimethylaniline] | < 1 µM | 173 to 175 °C
7 | CCC(CC)c1ccc(OC)c2nc(Oc3ccc(OC(F)(F)F)cc3Br)n(C)c12 [Example 10, 2-[2-Bromo-4-(trifluoromethoxy)phenoxy]-7-(1-ethylpropyl)-4-methoxy-1-methyl-1H-benzimidazole] | < 1 µM | 117 to 118 °C
8 | CCC(CC)c1ccc(OC)c2nc(Oc3ccc(C(F)(F)F)cc3N(C)C)n(C)c12 [Example 12, 2-{[7-(1-Ethylpropyl)-4-methoxy-1-methyl-1H-benzimidazol-2-yl]oxy}-N,N-dimethyl-5-(trifluoromethyl)aniline] | < 1 µM | 131 to 133 °C
9 | CCC(CC)c1ccc(OC)c2nc(Oc3ccc(OC(F)(F)F)cc3CN(C)C)n(C)c12 [Example 13, 1-[2-{[7-(1-Ethylpropyl)-4-methoxy-1-methyl-1H-benzimidazol-2-yl]oxy}-5-(trifluoromethoxy)phenyl]-N,N-dimethylmethanamine] | < 1 µM | 95 to 97 °C
10 | CCC(CC)c1ccc(OC)c2nc(Oc3c(C)cc(OC(F)(F)F)cc3CN(C)C)n(C)c12.Cl [Example 15, 1-[2-{[7-(1-Ethylpropyl)-4-methoxy-1-methyl-1H-benzimidazol-2-yl]oxy}-3-methyl-5-(trifluoromethoxy)phenyl]-N,N-dimethylmethanamine Hydrochloride] | < 1 µM | 92 to 94 °C
11 | CCC(CC)c1ccc(OC)c2nc(Nc3ccc(Cl)cc3Br)n(C)c12 [Example 19, N-(2-Bromo-4-chlorophenyl)-7-(1-ethylpropyl)-4-methoxy-1-methyl-1H-benzimidazol-2-amine] | < 1 µM | 193 to 195 °C
12 | CCC(CC)c1ccc(OC)c2nc(Nc3ccc(Cl)cc3Cl)n(C)c12 [Example 20, N-(2,4-Dichlorophenyl)-7-(1-ethylpropyl)-4-methoxy-1-methyl-1H-benzimidazol-2-amine] | < 1 µM | 198 to 200 °C
13 | CCC(CC)c1ccc(Cl)c2nc(Oc3c(Cl)cc(Cl)cc3N(C)C)n(C)c12 [Example 24, 3,5-Dichloro-2-{[4-chloro-7-(1-ethylpropyl)-1-methyl-1H-benzimidazol-2-yl]oxy}-N,N-dimethylaniline] | < 1 µM | 172 to 173 °C
14 | CCC(CC)c1ccc(Cl)c2nc(Oc3c(Cl)cc(Cl)cc3N3CCOCC3)n(C)c12 [Example 25, 4-Chloro-2-(2,4-dichloro-6-morpholin-4-ylphenoxy)-7-(1-ethylpropyl)-1-methyl-1H-benzimidazole] | < 1 µM | 155 to 157 °C
15 | CCC(CC)c1ccc(Cl)c2nc(Oc3c(Cl)cc(Cl)cc3N3CCN(C)CC3)n(C)c12 [Example 26, 4-Chloro-2-[2,4-dichloro-6-(4-methylpiperazin-1-yl)phenoxy]-7-(1-ethylpropyl)-1-methyl-1H-benzimidazole] | < 1 µM | 162 to 164 °C
16 | CCC(CC)c1ccc(Cl)c2nc(Oc3c(Cl)cc(Cl)cc3-n3ccnc3)n(C)c12 [Example 27, 4-Chloro-2-[2,4-dichloro-6-(1H-imidazol-1-yl)phenoxy]-7-(1-ethylpropyl)-1-methyl-1H-benzimidazole] | < 1 µM | 134 to 135 °C
17 | CCC(CC)c1ccc(Cl)c2nc(Oc3c(Cl)cc(Cl)cc3N3CCCC3)n(C)c12 [Example 29, 4-Chloro-2-(2,4-dichloro-6-pyrrolidin-1-ylphenoxy)-7-(1-ethylpropyl)-1-methyl-1H-benzimidazole] | < 1 µM | 209 to 210 °C
18 | CCC(CC)c1ccc(OC)c2nc(Oc3ccc(OC(F)(F)F)cc3N(C)C)n(C)c12 [Example 30, 2-{[7-(1-Ethylpropyl)-4-methoxy-1-methyl-1H-benzimidazol-2-yl]oxy}-N,N-dimethyl-5-(trifluoromethoxy)aniline] | < 1 µM | 93 to 95 °C
19 | CCC(CC)c1ccc(Cl)c2nc(Oc3c(Cl)cc(Cl)cc3C#N)n(C)c12 [Example 31, 3,5-Dichloro-2-{[4-chloro-7-(1-ethylpropyl)-1-methyl-1H-benzimidazol-2-yl]oxy}benzonitrile] | < 1 µM | 155 to 156 °C
20 | CCC(CC)c1ccc(Cl)c2nc(Oc3c(Cl)cc(Cl)cc3S(N)(=O)=O)n(C)c12 [Example 32, 3,5-Dichloro-2-{[4-chloro-7-(1-ethylpropyl)-1-methyl-1H-5 benzimidazol-2-yl]oxy}benzenesulfonamide] | < 1 µM | 133 to 134 °C
21 | CCC(CC)c1ccc(Cl)c2nc(Oc3c(C)cc(C(C)=O)cc3Cl)n(C)c12 [Example 35, 1-(3-Chloro-4-{[4-chloro-7-(1-ethylpropyl)-1-methyl-1H-benzimidazol-2-yl]oxy}-5-methylphenyl)ethanone] | < 1 µM | 160 to 161 °C
22 | CCC(CC)c1ccc(Cl)c2nc(Oc3c(C)cc(SC)cc3Cl)n(C)c12 [Example 36, 4-Chloro-2-[2-chloro-6-methyl-4-(methylthio)phenoxy]-7-(1-ethylpropyl)-1-methyl-1H-benzimidazole] | < 1 µM | 141 to 143 °C
23 | CCC(CC)c1ccc(Cl)c2nc(Oc3c(C)cc([S+](C)[O-])cc3Cl)n(C)c12 (centres unmarked) [Example 37, 4-Chloro-2-[2-chloro-6-methyl-4-(methylsulfinyl)phenoxy]-7-(1-ethylpropyl)-1-methyl-1H-benzimidazole] | < 1 µM | 182 to 184 °C
24 | CCC(CC)c1ccc(Cl)c2nc(Oc3c(Br)cc(C(F)(F)F)nc3C)n(C)c12 [Example 75, 2-{[4-Bromo-2-methyl-6-(trifluoromethyl)pyridin-3-yl]oxy}-4-chloro-7-(1-ethylpropyl)-1-methyl-1H-benzimidazole] | < 1 µM | –
25 | CCC(CC)c1ccc(Cl)c2nc(Oc3c(C(F)(F)F)cc(C(F)(F)F)nc3C)n(C)c12 [Example 76, 4-Chloro-7-(1-ethylpropyl)-1-methyl-2-{[2-methyl-4,6-bis(trifluoromethyl)pyridin-3-yl]oxy}-1H-benzimidazole] | < 1 µM | –
26 | CCC(CC)c1ccc(Cl)c2nc(Oc3c(C)cc(OC(F)(F)F)cc3CN(C)C)n(C)c12 [Example 84, 1-[2-{[4-Chloro-7-(1-ethylpropyl)-1-methyl-1H-benzimidazol-2-yl]oxy}-3-methyl-5-(trifluoromethoxy)phenyl]-N,N-dimethylmethanamine] | < 1 µM | –
27 | CCC(CC)c1ccc(O)c2nc(Nc3c(C)cc(Cl)cc3Cl)n(C)c12 [Example 90, 2-[(2,4-Dichloro-6-methylphenyl)amino]-7-(1-ethylpropyl)-1-methyl-1H-benzimidazol-4-ol] | < 1 µM | –

From US20100056515A1, “BENZIMIDAZOLE COMPOUNDS” (priority 2006, published 2010)
